Assay type in all cases: cell-based
Assay [1] has as its target T1, NLRP3 inflammasome (Homo sapiens, UniProt Q96P20). Briefly: NLRP3 inflammasome activation assay, IL-1 beta release, HMDM cells, MSU stimulation. The following applies: LPS-primed primary human monocyte-derived macrophages; MSU 150 μg/ml 3 h; IL-1β by AlphaLISA. The procedure: (§1) The following assays can be used to determine the inhibitory activity of test compounds on the NLRP3 inflammasome using common stimuli nigericin (Invivogen) or monosodium urate crystals (MSU)(Invivogen).
(§2) Human monocyte-like cells are cultured in RPM11640 Glutamax medium supplemented with 10% heat inactivated FCS and 50 U/ml penicillin-streptomycin (Life Technologies). HMDM (Human Monocyte Derived Macrophage) are isolated from human blood with leucosep tubes and classical monocyte isolation kit from Miltenyi based on negative selection.
(§3) Primary human monocyte-derived macrophages (HMDM) are seeded at 30000 per well in a 96 well plate and differentiated into macrophages with 10 ng/ml Human M-CSF (Macrophage Colony Stimulating Factor). At DIV 8 (Day in vitro) medium containing 10 ng/ml LPS is added. After 3 h of LPS priming, concentrations of test compound in the range from […] are added 30 min prior to NLRP3 inflammasome stimulation with Nigericin 2.5 μM or MSU 150 μg/ml for 3 h.
(§4) For IL-1β quantification, supernatants are analyzed using AlphaLISA kits according to the manufacturer's instructions (Perkin Elmer AlphaLISA AL220F).
(§5) IC50 (concentration corresponding to 50% inhibition) were determined using GraphPad Prism 8.

Assay [2] has as its target T1, NLRP3 inflammasome. Briefly: NLRP3 inflammasome activation assay, IL-1 beta release, human monocyte-like cells, MSU stimulation. Also noted: endogenous in cells. The following applies: PMA-differentiated, LPS-primed human monocyte-like cells; MSU 150 μg/ml 3 h; IL-1β by AlphaLISA. As to the method: as §1, §2
(§6) NLRP3 inflammasome activation assays Human monocyte-like cells are seeded at 75000 per well in a 96 well plate and differentiated overnight into macrophages with 10 ng/ml PMA (Phorbol Myristate Acetate). The following day, medium containing 10 ng/ml LPS (lipopolysaccharide) is added. After 3 h of LPS priming, concentrations of test compound in the range from 100 μM to 6 nM are added 30 min prior to NLRP3 inflammasome stimulation with Nigericin 3.75 μM or MSU 150 μg/ml for 3 h.
as §4, §5

The target in assay [3] is T1, NLRP3 inflammasome. The experiment in a line: NLRP3 inflammasome activation assay, IL-1 beta release, human monocyte-like cells, Nigericin stimulation. Also noted: endogenous in cells. The following applies: PMA-differentiated, LPS-primed human monocyte-like cells; Nigericin 3.75 μM 3 h; IL-1β by AlphaLISA. The procedure: as §1, §2, §6, §4, §5
Background: In Alpha technology, singlet oxygen from a donor bead excites a nearby acceptor bead.

In assay [4] the target is T1, NLRP3 inflammasome. The experiment in a line: NLRP3 inflammasome activation assay, IL-1 beta release, HMDM cells, Nigericin stimulation. The note with it: LPS-primed primary human monocyte-derived macrophages; Nigericin 2.5 μM 3 h; IL-1β by AlphaLISA. As to the method:
as §1, §2, §3, §4, §5

The structures appear in SMILES notation. pIC50: −log10 of the molar value.

T1 sequence (Q96P20 whole entry): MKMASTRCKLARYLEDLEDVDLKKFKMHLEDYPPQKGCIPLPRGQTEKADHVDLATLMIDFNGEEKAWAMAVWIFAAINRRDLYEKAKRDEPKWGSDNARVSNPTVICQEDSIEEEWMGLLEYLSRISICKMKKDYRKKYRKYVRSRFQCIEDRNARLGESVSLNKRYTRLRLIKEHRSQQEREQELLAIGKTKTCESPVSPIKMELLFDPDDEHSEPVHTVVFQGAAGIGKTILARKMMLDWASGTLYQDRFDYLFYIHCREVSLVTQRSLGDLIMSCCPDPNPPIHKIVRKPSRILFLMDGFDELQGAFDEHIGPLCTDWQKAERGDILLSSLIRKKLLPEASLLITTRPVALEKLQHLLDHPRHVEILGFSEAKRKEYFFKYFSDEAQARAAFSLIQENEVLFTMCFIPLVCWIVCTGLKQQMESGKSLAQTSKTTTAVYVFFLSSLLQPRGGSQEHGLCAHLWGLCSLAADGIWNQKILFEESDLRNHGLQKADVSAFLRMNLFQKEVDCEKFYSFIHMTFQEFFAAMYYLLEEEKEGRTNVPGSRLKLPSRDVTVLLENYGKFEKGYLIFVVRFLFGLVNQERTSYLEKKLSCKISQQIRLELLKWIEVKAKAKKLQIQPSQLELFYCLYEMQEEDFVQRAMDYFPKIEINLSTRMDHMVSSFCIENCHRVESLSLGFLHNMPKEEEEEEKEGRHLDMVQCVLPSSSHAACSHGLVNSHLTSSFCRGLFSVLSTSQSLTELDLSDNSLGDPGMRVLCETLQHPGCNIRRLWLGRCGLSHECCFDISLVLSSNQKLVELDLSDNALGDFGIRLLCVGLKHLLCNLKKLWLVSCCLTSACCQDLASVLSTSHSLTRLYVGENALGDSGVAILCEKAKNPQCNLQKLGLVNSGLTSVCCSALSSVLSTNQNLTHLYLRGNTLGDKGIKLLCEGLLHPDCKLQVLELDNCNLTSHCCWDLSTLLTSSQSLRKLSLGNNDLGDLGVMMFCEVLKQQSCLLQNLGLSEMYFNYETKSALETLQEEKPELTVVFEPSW

The pIC50 is the negative decadic logarithm of the IC50, by convention in mol/L. The low end stands for a high IC50, the high end for a low IC50. As for `COc1ccc2c(c1)S(=O)(NC(=O)Nc1c3c(cc4c1CCC4)CCC3)=NC2=O` (single isomer, unassigned) [Example 48], the pIC50 on NLRP3 inflammasome [1], against NLRP3 inflammasome [2], at NLRP3 inflammasome [3] and against NLRP3 inflammasome [4] was over 6.00 each time.
For `O=C(Nc1c2c(cc3c1CCC3)CCC2)NS1(=O)=NC(=O)c2ccccc2C1` (stereo not shown) [Example 3], the pIC50 is over 6.00 against NLRP3 inflammasome [1], over 6.00 at NLRP3 inflammasome [2], 5.00 to 6.00 on NLRP3 inflammasome [3] and 5.00 to 6.00 at NLRP3 inflammasome [4].
Regarding `CC(C)(O)c1ccc2c(c1)S(=O)(=NC(=O)Nc1c3c(cc4c1CCC4)CCC3)NC2=O` (stereo not shown) [Example 30, 1-(1,2,3,5,6,7-hexahydro-s-indacen-4-yl)-3-(6-(2-hydroxypropan-2-yl)-1-oxido-3-oxo-3H-1,4-benzo[d]isothiazol-1-yl)urea], the pIC50 against NLRP3 inflammasome [1], at NLRP3 inflammasome [2], on NLRP3 inflammasome [3] and against NLRP3 inflammasome [4] was over 6.00 each time.
For the compound `O=C(Nc1c2c(cc3c1CCC3)CCC2)NS1(=O)=NC(=O)c2c(Cl)cccc21` (single isomer, unassigned) [Example 42], the pIC50 against NLRP3 inflammasome [1] was over 6.00; against NLRP3 inflammasome [2], over 6.00; against NLRP3 inflammasome [3] it was 5.00 to 6.00; on NLRP3 inflammasome [4] it was 5.00 to 6.00.
Regarding `O=C(Nc1c2c(c(F)c3c1CCC3)CCC2)NS1(=O)=NC(=O)c2sccc21` (stereo not shown) [Example 19], the pIC50 at NLRP3 inflammasome [1], at NLRP3 inflammasome [2], against NLRP3 inflammasome [3] and against NLRP3 inflammasome [4] was over 6.00 in each case.
On to `O=C(Nc1c2c(cc3c1CCC3)CCC2)NS1(=O)=NC(=O)c2sccc21` (stereo not shown) [Example 4], for which the pIC50 against NLRP3 inflammasome [1] was over 6.00; against NLRP3 inflammasome [2] it was over 6.00; against NLRP3 inflammasome [3], over 6.00; against NLRP3 inflammasome [4], 5.00 to 6.00.
With `O=C(Nc1c2c(c(F)c3c1CCC3)CCC2)NS1(=O)=NC(=O)c2ccccc21` (stereo not shown) [Example 5], the pIC50 against NLRP3 inflammasome [1] was over 6.00; on NLRP3 inflammasome [2], over 6.00; against NLRP3 inflammasome [3], 5.00 to 6.00; on NLRP3 inflammasome [4], 5.00 to 6.00.
Turning to `O=C(Nc1c2c(cc3c1CCC3)CCC2)NS1(=O)=NC(=O)c2cc(F)ccc21` (single isomer, unassigned) [Example 62], the pIC50 on NLRP3 inflammasome [1] was over 6.00; at NLRP3 inflammasome [2] it was over 6.00; on NLRP3 inflammasome [3] it was over 6.00; on NLRP3 inflammasome [4], 5.00 to 6.00.
In the case of `O=C(N=S1(=O)NC(=O)c2ccccc21)Nc1c2c(cc3c1CCC3)CCC2` (racemic) [Example 1], the pIC50 against NLRP3 inflammasome [1] was over 6.00; against NLRP3 inflammasome [2] it was over 6.00; against NLRP3 inflammasome [3] it was 5.00 to 6.00; against NLRP3 inflammasome [4], 5.00 to 6.00.
Consider `O=C(N=S1(=O)NC(=O)c2ccc(Br)cc21)Nc1c2c(cc3c1CCC3)CCC2` (single isomer, unassigned) [Example 60], for which the pIC50 against NLRP3 inflammasome [1] is over 6.00; against NLRP3 inflammasome [2], over 6.00; on NLRP3 inflammasome [3], over 6.00; on NLRP3 inflammasome [4], 5.00 to 6.00.
Turning to `O=C(Nc1c2c(cc3c1CCC3)CCC2)NS1(=O)=NC(=O)c2ccccc2C1` (single isomer, unassigned) [Example 34], the pIC50 on NLRP3 inflammasome [1] was over 6.00; on NLRP3 inflammasome [2] it was over 6.00; on NLRP3 inflammasome [3], over 6.00; against NLRP3 inflammasome [4], 5.00 to 6.00.
Regarding `O=C(Nc1c2c(cc3c1CCC3)CCC2)NS1(=O)=NC(=O)c2c(Cl)cccc21` (stereo not shown) [Example 11], the pIC50 at NLRP3 inflammasome [1] was 5.00 to 6.00; on NLRP3 inflammasome [2], over 6.00; against NLRP3 inflammasome [3], 5.00 to 6.00; at NLRP3 inflammasome [4], 5.00 to 6.00.
For `COc1cc(-c2cccc(C(C)C)c2NC(=O)NS2(=O)=NC(=O)c3ccc(C(C)(C)O)cc32)ccn1` (stereo not shown) [Example 31], the pIC50 on NLRP3 inflammasome [1] was 5.00 to 6.00; against NLRP3 inflammasome [2], over 6.00; on NLRP3 inflammasome [3] it was over 6.00; against NLRP3 inflammasome [4], 5.00 to 6.00.
Consider `O=C(Nc1c2c(c(F)c3c1CCC3)CCC2)NS1(=O)=NC(=O)c2sccc21` (single isomer, unassigned) [Example 55], for which the pIC50 at NLRP3 inflammasome [1], at NLRP3 inflammasome [2], on NLRP3 inflammasome [3] and against NLRP3 inflammasome [4] was over 6.00 each time.
Take `O=C(N=S1(=O)NC(=O)c2ccccc21)Nc1c2c(cc3c1CCC3)CCC2` (single isomer, unassigned) [Example 1b]: the negative logarithm of the IC50 (pIC50) on NLRP3 inflammasome [1] is over 6.00; against NLRP3 inflammasome [2], over 6.00; against NLRP3 inflammasome [3], 5.00 to 6.00; on NLRP3 inflammasome [4], 5.00 to 6.00.
On to `O=C(Nc1c2c(c(F)c3c1CCC3)CCC2)NS1(=O)=NC(=O)c2ccccc21` (single isomer, unassigned) [Example 37], for which the pIC50 was over 6.00 on NLRP3 inflammasome [1], over 6.00 at NLRP3 inflammasome [2], over 6.00 on NLRP3 inflammasome [3] and 5.00 to 6.00 against NLRP3 inflammasome [4].
Consider `O=C(Nc1c2c(cc3c1CCC3)CCC2)NS1(=O)=NC(=O)c2sccc21` (single isomer, unassigned) [Example 36], for which the pIC50 on NLRP3 inflammasome [1], on NLRP3 inflammasome [2], at NLRP3 inflammasome [3] and against NLRP3 inflammasome [4] was over 6.00 throughout.
Consider `Cc1cccc2c1C(=O)N=S2(=O)NC(=O)Nc1c2c(cc3c1CCC3)CCC2` (stereo not shown) [Example 14], for which the negative-log IC50 (pIC50) against NLRP3 inflammasome [1] was 5.00 to 6.00; at NLRP3 inflammasome [2], over 6.00; against NLRP3 inflammasome [3] it was 5.00 to 6.00; against NLRP3 inflammasome [4], 5.00 to 6.00.
Consider `CC(C)(O)c1ccc2c(c1)S(=O)(=NC(=O)Nc1c3c(cc4c1CCC4)CCC3)NC2=O` (single isomer, unassigned) [Example 41], for which the negative logarithm of the IC50 (pIC50) on NLRP3 inflammasome [1], at NLRP3 inflammasome [2], at NLRP3 inflammasome [3] and against NLRP3 inflammasome [4] was over 6.00 throughout.

The values are drawn from US20220378801A1, “NOVEL COMPOUNDS” (AC Immune SA, priority 2019, published 2022).
